Measured values from PubChem BioAssay (NCI).
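1) Cells in 96-well plates. 2) Compound, 48 h, 5 concentrations. 3) Linear interpolation between surrounding doses. 4) Unreached endpoint = highest concentration. GI50 is the concentration that inhibits growth by half. At the TGI there is no net growth.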

Legend:
Assay in all cases: NCI-60 cell line screen, 48 h
HCT-15 colon = test system: HCT-15 colon
MOLT-4 leukemia = test system: MOLT-4 leukemia
T-47D breast = test system: T-47D breast
EKVX NSCLC = test system: EKVX NSCLC
CAKI-1 renal = test system: CAKI-1 renal
UO-31 renal = test system: UO-31 renal
RXF 393 renal = test system: RXF 393 renal
SK-MEL-28 melanoma = test system: SK-MEL-28 melanoma
RPMI-8226 leukemia = test system: RPMI-8226 leukemia
HL-60(TB) leukemia = test system: HL-60(TB) leukemia

| Compound | TGI (HCT-15 colon) [µM] | TGI (MOLT-4 leukemia) [µM] | TGI (T-47D breast) [µM] | TGI (EKVX NSCLC) [µM] | TGI (CAKI-1 renal) [µM] | TGI (UO-31 renal) [µM] | TGI (RXF 393 renal) [µM] | TGI (SK-MEL-28 melanoma) [µM] | TGI (RPMI-8226 leukemia) [µM] | TGI (HL-60(TB) leukemia) [µM] | GI50 (HCT-15 colon) [µM] | GI50 (MOLT-4 leukemia) [µM] | GI50 (T-47D breast) [µM] | GI50 (EKVX NSCLC) [µM] | GI50 (CAKI-1 renal) [µM] | GI50 (UO-31 renal) [µM] | GI50 (RXF 393 renal) [µM] | GI50 (SK-MEL-28 melanoma) [µM] | GI50 (RPMI-8226 leukemia) [µM] | GI50 (HL-60(TB) leukemia) [µM] |
| --- | --- | --- | --- | --- | --- | --- | --- | --- | --- | --- | --- | --- | --- | --- | --- | --- | --- | --- | --- | --- |
| CCN(c1cccc(NC(=S)Nc2ccccc2N(CC)c2cc(-c3ccccc3)no2)c1)c1cc(-c2ccccc2)no1 | > 100 | > 100 | > 100 | > 100 | > 100 | > 100 | > 100 | > 100 | > 100 | > 100 |  |  |  |  |  |  |  |  |  |  |
| COC(=O)c1c(O)ccc2c1C1(Cc3ccccc3C1=O)C(O)O2 (centres undefined) | 54.2 | 21.5 | 45.3 | 68.5 | 61.8 | 85 | > 100 | > 100 | 17.3 | 40.4 |  |  |  |  |  |  |  |  |  |  |
| COc1cccc(N2C(=O)C3c4[nH]c5ccc(C)cc5c4C4CCC(C(C)(C)C)CC4C3C2=O)c1 (centres undefined) | > 10 | 5.04 | > 10 | > 10 | > 10 | > 10 | 9.94 | > 10 | > 10 | 4.21 |  |  |  |  |  |  |  |  |  |  |
| C=CCOC(=O)C1C2OC3(C(C(=O)OC)=C2C(=O)OC)c2ccccc2CCC13 (centres undefined) | > 10 | > 10 | > 10 | > 10 | > 10 | > 10 | > 10 | > 10 | > 10 | > 10 |  |  |  |  |  |  |  |  |  |  |
| Cc1ccc(/C(O)=C/C(=O)C(=O)NN=C(c2ccccc2)c2ccccc2)cc1 | > 100 | > 100 | > 100 | > 100 | > 100 | > 100 | > 100 | > 100 | > 100 | > 100 |  |  |  |  |  |  |  |  |  |  |
| CC[C@@H](/C=C\CCC(=O)C[C@H](O)CCC=C(C)C)O[Si](C(C)C)(C(C)C)C(C)C | > 100 | > 100 | > 100 | > 100 | > 100 | > 100 | > 100 | > 100 | > 100 | > 100 |  |  |  |  |  |  |  |  |  |  |
| CC1=NN(C(=O)CSc2nc3ccc(I)cc3c(=O)n2Cc2ccccc2)C(=O)C1 | 52.4 | 67.8 | 60.3 | 79.8 | > 100 |  | 66.2 | > 100 | > 100 | > 100 |  |  |  |  |  |  |  |  |  |  |
| Cc1cc(O)c(C(C)C)cc1C1(c2cc(C(C)C)c(O)cc2C)OC(=O)c2ccccc21 | 4.93 | 3.38 | 6.44 | 9.25 | 18.4 | 7.04 | 3.02 | 3.07 | 3.17 | 1.24 |  |  |  |  |  |  |  |  |  |  |
| CCOC(=O)c1ccc(C(=O)C(C(C)=O)C(=O)OC(C)(C)C)[nH]1 (centres undefined) | > 100 | > 100 | > 100 | > 100 | > 100 | > 100 | > 100 | > 100 | > 100 | > 100 |  |  |  |  |  |  |  |  |  |  |
| CCC(c1c[nH]c2ccc(Br)cc12)c1c[nH]c2ccc(Br)cc12 | 15 | 4.56 | 7.97 | 17.2 | 6.58 | 18.7 | 7.21 | 25.4 | 11.3 | 16.3 |  |  |  |  |  |  |  |  |  |  |
| CC(C)[C@@H]1ON1C(C)c1ccccc1 (some centres undefined) | > 100 | > 100 | > 100 | > 100 | 34.7 | > 100 | > 100 | > 100 | > 100 | > 100 |  |  |  |  |  |  |  |  |  |  |
| Cc1ccc(/C=C2\CCCC(CN3CCCCC3)C2=O)cc1 (centres undefined) | 4.3 | > 100 | 3.41 | 32.7 | 3.19 | 3.58 | 3.15 | 3.22 | > 100 | > 100 |  |  |  |  |  |  |  |  |  |  |
| CCOc1cc(NC(C)=O)ccc1C(=O)NN1C(=O)C(Cl)C1c1ccco1 (centres undefined) | 46.6 | 29.8 | 40.3 | 36.2 | 30.9 | 11.5 | 29 | 63.5 | 45.5 | 43.4 |  |  |  |  |  |  |  |  |  |  |
| CC1OC(O[C@H]2/C=C/C=C/C=C/C=C/C=C/C=C/C=C/[C@H](C)[C@@H](O)[C@@H](C)[C@H](C)OC(=O)CC(O)CC(O)CCC(O)C(O)CC(O)C[C@]3(O)C[C@H](O)C(C(=O)O)C(C2)O3)C(O)[C@H](N)C1O (some centres undefined) | 54 | 6.02 | 90.3 | 11 | 11.7 | 2.76 | 3.95 | 3.98 | 59 | 10.9 | 12 | 2.9 | 16.4 | 3.4 | 3.16 | 1.4 | 1.84 | 2.07 | 16.6 | 3.79 |
